According to US20230148599A1, “FUNGICIDAL MIXTURES CONTAINING PYRAZOLE DERIVATIVES” (FMC Corporation, priority 2020, published 2023):

Legend:
Assay type in all cases: in vivo
Conditions in all cases: 50 ppm, 100 = 100% disease control, 0 = no control
[1] = system: Blumeria graminis f. sp. tritici; assay: Test C: wheat powdery mildew, preventive spray on wheat seedlings
Text: General protocol for preparing test suspensions for Tests A-F: the test compounds were first dissolved in acetone in an amount equal to 3% of the final volume and then suspended at the desired concentration (in ppm) in acetone and purified water (50/50 mix by volume) containing 250 ppm of the surfactant PEG400 (polyhydric alcohol esters). The resulting test suspensions were then used in Tests A-F.
The test suspension was sprayed to the point of run-off on wheat seedlings. The following day the seedlings were inoculated with a spore dust of Blumeria graminis f. sp. tritici, (also known as Erysiphe graminis f. sp. tritici, the causal agent of wheat powdery mildew) and incubated in a growth chamber at 20° C. for 8 days, after which time visual disease ratings were made.
A rating of 100 indicates 100% disease control and a rating of 0 indicates no disease control (relative to the controls). A dash (−) indicates the compound was not tested.

Alternaria solani = assay: Test F: tomato early blight, preventive spray on tomato seedlings
Method in brief: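 Tomato seedlings were sprayed to run-off with compound suspended in acetone/water (50/50) with 250 ppm PEG400 and inoculated with Alternaria solani spores the next day. Plants were held 48 h at 27 °C in saturated humidity, then 3 days at 20 °C. Disease control was rated visually from 0 to 100 against untreated controls.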

Botrytis cinerea = assay: Test E: tomato Botrytis, preventive spray on tomato seedlings
Method in brief: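 Compound suspended in 50/50 acetone/water with 250 ppm PEG400 surfactant and sprayed to run-off on tomato seedlings; Botrytis cinerea spores applied the next day. Incubation 48 h at 20° C in saturated atmosphere, then 3 days at 24° C. Visual rating 0–100% disease control relative to controls.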

Septoria tritici = assay: Test A: wheat leaf blotch, preventive spray on wheat seedlings
Method in brief: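 Wheat seedlings sprayed to run-off with compound suspended in acetone/water with 250 ppm PEG400 surfactant, inoculated next day with Septoria tritici spores. Held 48 h saturated at 24 °C, then 17 days at 20 °C; disease rated 0–100% control relative to controls.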

[2] = system: Puccinia recondita f. sp. tritici; assay: Test B: wheat leaf rust, preventive spray on wheat seedlings
Method in brief: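 Wheat seedlings were sprayed to run-off with compound suspended at ppm concentrations in acetone/water containing 250 ppm PEG400. The next day they were inoculated with Puccinia recondita f. sp. tritici spores, held saturated at 20 °C for 24 h, then kept 7 days at 20 °C. Disease control was rated 0–100% relative to untreated controls.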

Phakopsora pachyrhizi = assay: Test D: Asian soybean rust, preventive spray on soybean seedlings
Method in brief: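 Compounds in acetone/water (50/50) with 250 ppm PEG400, dosed in ppm, sprayed to run-off on soybean seedlings; inoculated with P. pachyrhizi spores next day. Held 24 h at 22 °C in saturated air, then 8 days at 22 °C; visual rating of disease control, 0–100, relative to untreated controls.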

## COc1ccc(-c2c(C)nn(C)c2Nc2c(F)cccc2[N+](=O)[O-])c(Cl)c1 [compound 27]
[1]
  Test C disease control rating: 91%
Alternaria solani
  Test F disease control rating: 99%
Botrytis cinerea
  Test E disease control rating: 100%
Septoria tritici
  Test A disease control rating: 100%
[2]
  Test B disease control rating: 100%
Phakopsora pachyrhizi
  Test D disease control rating: 87%

## Cc1nn(C)c(Nc2ccc(OC(F)F)cc2[N+](=O)[O-])c1-c1ccc(F)cc1Cl [compound 28]
[1]
  Test C disease control rating: 69%
Alternaria solani
  Test F disease control rating: 0%
Botrytis cinerea
  Test E disease control rating: 99%
Septoria tritici
  Test A disease control rating: 91%
[2]
  Test B disease control rating: 68%
Phakopsora pachyrhizi
  Test D disease control rating: 0%

## Cc1nn(C)c(Nc2ccc(OCC#N)cc2[N+](=O)[O-])c1-c1ccc(F)cc1Cl [compound 29]
[1]
  Test C disease control rating: 87%
Alternaria solani
  Test F disease control rating: 26%
Botrytis cinerea
  Test E disease control rating: 99%
Septoria tritici
  Test A disease control rating: 97%
[2]
  Test B disease control rating: 98%
Phakopsora pachyrhizi
  Test D disease control rating: 81%

## Cc1nn(C)c(Nc2cc(F)ccc2[N+](=O)[O-])c1-c1ccc(F)cc1Cl [compound 30]
[1]
  Test C disease control rating: 91%
Alternaria solani
  Test F disease control rating: 0%
Botrytis cinerea
  Test E disease control rating: 67%
Septoria tritici
  Test A disease control rating: 100%
[2]
  Test B disease control rating: 86%
Phakopsora pachyrhizi
  Test D disease control rating: 0%

## Cc1cc(Cl)c(Nc2c(-c3ccc(F)cc3Cl)c(C)nn2C)c([N+](=O)[O-])c1 [compound 31]
[1]
  Test C disease control rating: 100%
Alternaria solani
  Test F disease control rating: 76%
Botrytis cinerea
  Test E disease control rating: 99%
Septoria tritici
  Test A disease control rating: 100%
[2]
  Test B disease control rating: 100%
Phakopsora pachyrhizi
  Test D disease control rating: 98%

## Cc1nn(C)c(Nc2cc(F)c(F)cc2[N+](=O)[O-])c1-c1ccc(F)cc1Cl [compound 32]
[1]
  Test C disease control rating: 56%
Alternaria solani
  Test F disease control rating: 0%
Botrytis cinerea
  Test E disease control rating: 99%
Septoria tritici
  Test A disease control rating: 93%
[2]
  Test B disease control rating: 85%
Phakopsora pachyrhizi
  Test D disease control rating: 98%

## Cc1cc(Cl)cc([N+](=O)[O-])c1Nc1c(-c2ccc(F)cc2Cl)c(C)nn1C [compound 33]
[1]
  Test C disease control rating: 99%
Alternaria solani
  Test F disease control rating: 85%
Botrytis cinerea
  Test E disease control rating: 99%
Septoria tritici
  Test A disease control rating: 100%
[2]
  Test B disease control rating: 100%
Phakopsora pachyrhizi
  Test D disease control rating: 92%

## COc1ccc(-c2c(C)nn(C)c2Nc2c(Cl)cccc2[N+](=O)[O-])c(C)c1 [compound 35]
[1]
  Test C disease control rating: 0%
Alternaria solani
  Test F disease control rating: 0%
Botrytis cinerea
  Test E disease control rating: 0%
Septoria tritici
  Test A disease control rating: 99%
[2]
  Test B disease control rating: 85%
Phakopsora pachyrhizi
  Test D disease control rating: 0%

## Cc1nn(C)c(Nc2ccc(OCC(F)F)cc2[N+](=O)[O-])c1-c1ccc(F)cc1Cl [compound 36]
[1]
  Test C disease control rating: 56%
Alternaria solani
  Test F disease control rating: 0%
Botrytis cinerea
  Test E disease control rating: 100%
Septoria tritici
  Test A disease control rating: 100%
[2]
  Test B disease control rating: 89%
Phakopsora pachyrhizi
  Test D disease control rating: 25%

## Cc1nn(C)c(Nc2c(Cl)cc(Cl)cc2[N+](=O)[O-])c1-c1ccc(F)cc1Br [compound 37]
[1]
  Test C disease control rating: 98%
Alternaria solani
  Test F disease control rating: 78%
Botrytis cinerea
  Test E disease control rating: 88%
Septoria tritici
  Test A disease control rating: 100%
[2]
  Test B disease control rating: 100%
Phakopsora pachyrhizi
  Test D disease control rating: 0%

## Cc1nn(C)c(Nc2c(Cl)cccc2[N+](=O)[O-])c1-c1c(F)cccc1Cl [compound 38]
[1]
  Test C disease control rating: 95%
Alternaria solani
  Test F disease control rating: 0%
Botrytis cinerea
  Test E disease control rating: 88%
Septoria tritici
  Test A disease control rating: 100%
[2]
  Test B disease control rating: 99%
Phakopsora pachyrhizi
  Test D disease control rating: 0%

## Cc1nn(C)c(Nc2c(F)cc(F)cc2[N+](=O)[O-])c1-c1c(F)cccc1Cl [compound 39]
[1]
  Test C disease control rating: 99%
Alternaria solani
  Test F disease control rating: 99%
Botrytis cinerea
  Test E disease control rating: 88%
Septoria tritici
  Test A disease control rating: 100%
[2]
  Test B disease control rating: 100%
Phakopsora pachyrhizi
  Test D disease control rating: 73%

## Cc1cc(F)c(Nc2c(-c3ccc(F)cc3Br)c(C)nn2C)c([N+](=O)[O-])c1 [compound 40]
[1]
  Test C disease control rating: 100%
Alternaria solani
  Test F disease control rating: 100%
Botrytis cinerea
  Test E disease control rating: 98%
Septoria tritici
  Test A disease control rating: 100%
[2]
  Test B disease control rating: 100%
Phakopsora pachyrhizi
  Test D disease control rating: 82%

## Cc1nn(C)c(Nc2c(Cl)cccc2[N+](=O)[O-])c1-c1ccc(F)cc1Br [compound 41]
[1]
  Test C disease control rating: 94%
Alternaria solani
  Test F disease control rating: 0%
Botrytis cinerea
  Test E disease control rating: 77%
Septoria tritici
  Test A disease control rating: 100%
[2]
  Test B disease control rating: 100%
Phakopsora pachyrhizi
  Test D disease control rating: 77%

## Cc1cccc([N+](=O)[O-])c1Nc1c(-c2ccc(F)cc2Br)c(C)nn1C [compound 42]
[1]
  Test C disease control rating: 96%
Alternaria solani
  Test F disease control rating: 0%
Botrytis cinerea
  Test E disease control rating: 91%
Septoria tritici
  Test A disease control rating: 100%
[2]
  Test B disease control rating: 100%
Phakopsora pachyrhizi
  Test D disease control rating: 0%

## Cc1nn(C)c(Nc2c(Cl)cc(F)cc2[N+](=O)[O-])c1-c1ccc(F)cc1Br [compound 43]
[1]
  Test C disease control rating: 97%
Alternaria solani
  Test F disease control rating: 64%
Botrytis cinerea
  Test E disease control rating: 96%
Septoria tritici
  Test A disease control rating: 100%
[2]
  Test B disease control rating: 100%
Phakopsora pachyrhizi
  Test D disease control rating: 65%

## Cc1nn(C)c(Nc2ccc(F)cc2[N+](=O)[O-])c1-c1c(F)cccc1Cl [compound 44]
[1]
  Test C disease control rating: 98%
Alternaria solani
  Test F disease control rating: 46%
Botrytis cinerea
  Test E disease control rating: 95%
Septoria tritici
  Test A disease control rating: 100%
[2]
  Test B disease control rating: 99%
Phakopsora pachyrhizi
  Test D disease control rating: 0%

## CCc1nn(C)c(Nc2ccc(OC)cc2[N+](=O)[O-])c1-c1ccc(F)cc1F [compound 45]
[1]
  Test C disease control rating: 95%
Alternaria solani
  Test F disease control rating: 33%
Botrytis cinerea
  Test E disease control rating: 99%
Septoria tritici
  Test A disease control rating: 100%
[2]
  Test B disease control rating: 86%
Phakopsora pachyrhizi
  Test D disease control rating: 0%

## CCc1nn(C)c(Nc2c(F)cccc2[N+](=O)[O-])c1-c1ccc(F)cc1F [compound 46]
[1]
  Test C disease control rating: 99%
Alternaria solani
  Test F disease control rating: 81%
Botrytis cinerea
  Test E disease control rating: 99%
Septoria tritici
  Test A disease control rating: 100%
[2]
  Test B disease control rating: 98%
Phakopsora pachyrhizi
  Test D disease control rating: 0%

## Cc1nn(C)c(Nc2c(F)cc(I)cc2[N+](=O)[O-])c1-c1ccc(F)cc1Cl [compound 47]
[1]
  Test C disease control rating: 89%
Alternaria solani
  Test F disease control rating: 96%
Botrytis cinerea
  Test E disease control rating: 95%
Septoria tritici
  Test A disease control rating: 100%
[2]
  Test B disease control rating: 97%
Phakopsora pachyrhizi
  Test D disease control rating: 92%
